Source: US20230374034A1, “NOVEL BICYCLIC COMPOUNDS” (PRISM BIOLAB CO., LTD., priority 2020, published 2023)

Test system: NICD (Notch intracellular domain) CSL-bla reporter in HeLa cells
Experiment: Notch assay (CellSensor T-REx NICD CSL-bla HeLa beta-lactamase reporter; Method 1 / Method 2)
Format: cell-based
Settings: Homo sapiens, 10 μM compound, Method 1 (10× compound prepared in assay medium, added to plated cells), read-out: inhibiton (%) at 10 μM
Description: We used the CellSensor T-REx™ NICD CSL-bla HeLa cell line, which was engineered by lentiviral transduction of HeLa cells with a Notch response element driving beta-lactamase reporter gene expression (CSL-bla) along with DOX (doxycycline)-inducible NICD (Notch intracellular domain) constructs. Addition of DOX to these cells allows for regulated NICD transcription factor expression and subsequent beta-lactamase expression.
Specifically, the following protocol was used.
NOTCH ASSAY PROTOCOL (Method 2)
• 1. Add 40 nL/well of working concentration of 1000× compound to 384-well assay plate with Echo. • 2. Plate Cells: 35 μl/well of HeLa/T-REx™ NICD CSL-bla cells at 10^3 cells/well complete medium into 384-well plate. • 3. Add 5 μl 8× Doxycycline in Assay Medium to the treated wells, and 5 μl Assay Medium to the Untreated and cell free control wells. • 4. Incubate the assay plate in a humidified 37° C./5% CO2 incubator for 16-20 hours. • 5. Preparation of 6× LiveBLAzer™-FRET B/G Substrate (CCF4-AM) Mixture according to the manual and cell loading should be done in the absence of direct strong lighting. • 6. Remove assay plate from the humidified 37° C./5% CO2 incubator. Add 8 μl of 6× Substrate Mixture from Step 5 to each well. Cover the plate to protect it from light and evaporation. Incubate at room temperature for 4 hours. • 7. Reading an Assay Plate using the following filter selections:
• 8. Data analysis: Use the assay plate layout to identify the location of the Cell-free wells. These control wells are used for background subtraction. Determine the average emission from the Cell-free wells at both 460 nm (Average Blue Background) and 530 nm(Average Green Background). Subtract the Average Blue Background (data collected at 460 nm) from all of the blue emission data. Subtract the Average Green background (data collected at 530 nm) from all of the green emission data. Calculate the Blue/Green Emission Ratio for each well, by dividing the background-subtracted blue emission values by the background-subtracted green emission values.
Instead of Step 1 to Step 3, the following Step a to Step d can also be performed. The subsequent steps are the same as Method 2, after Step 4 (Method 1). • a. Plate Cells: 32 μL/well of HeLa/T-REx™ NICD CSL-bla cells at 10^3 cells/well complete medium into 384-well plate. • b. Prepare 10× compounds in assay medium. • c. Add 4 μL compounds or 1% DMSO in assay medium to the cells. • d. Add 4 μL 10×Doxycycline in Assay Medium to the treated wells, and 4 μL Assay Medium to the Untreated and cell free control wells.
The results are shown in Table 13 (Table 13-1 to Table 13-2).

**Q.** Which inhibition at 10 µM does the source give for `CC(C)CCN1CC2N(C(=O)OCc3cccc4ccccc34)O[C@H](Cc3ccccc3)C(=O)N2[C@@H](Cc2ccc(O)cc2)C1=O` (stereo partly drawn) [Compound I-16, (3R,6S)-naphthalen-1-ylmethyl 3-benzyl-6-(4-hydroxybenzyl)-8-isopentyl-4,7-dioxohexahydropyrazino[2,1-c][1,2,4]oxadiazine-1(6H)-carboxylate] here?
**A.** 79.8%

**Q.** `CCCCCCOC(=O)N1O[C@@H](CC(C)C)C(=O)N2C1CN(Cc1ccccc1)C(=O)[C@@H]2Cc1ccc(O)cc1` (stereo partly drawn) [Compound I-5, (3S,6S)-hexyl 8-benzyl-6-(4-hydroxybenzyl)-3-isobutyl-4,7-dioxohexahydropyrazino[2,1-c][1,2,4]oxadiazine-1(6H)-carboxylate] was tested. Which inhibition at 10 µM did it give?
**A.** 66.1%

Same assay, conditions: Homo sapiens, 10 μM compound, Method 2 (40 nL of 1000× compound added to plate with Echo), read-out: inhibiton (%) at 10 μM

**Q.** Which inhibition at 10 µM does the source give for `CCCCCOC(=O)N1O[C@H](Cc2ccccc2)C(=O)N2C1CN([C@@H](Cc1ccc(O)cc1)C(=O)NCCCC(C)C)C(=O)[C@@H]2Cc1ccc(O)cc1` (stereo partly drawn) [Compound I-111, pentyl (3R,6S)-3-benzyl-6-(4-hydroxybenzyl)-8-((S)-3-(4-hydroxyphenyl)-1-((4-methylpentyl)amino)-1-oxopropan-2-yl)-4,7-dioxohexahydropyrazino[2,1-c][1,2,4]oxadiazine-1(6H)-carboxylate] here?
**A.** 53.9%

**Q.** Which inhibition at 10 µM does the source give for `CC(C)CCOC(=O)N1O[C@H](Cc2ccccc2)C(=O)N2C1CN([C@@H](Cc1ccccc1)C(=O)NCCCO)C(=O)[C@@H]2Cc1ccc(O)cc1` (stereo partly drawn) [Compound I-106, isopentyl (3R,6S)-3-benzyl-6-(4-hydroxybenzyl)-8-((S)-1-((3-hydroxypropyl)amino)-1-oxo-3-phenylpropan-2-yl)-4,7-dioxohexahydropyrazino[2,1-c][1,2,4]oxadiazine-1(6H)-carboxylate] here?
**A.** 52%

**Q.** For `CC(C)C[C@H]1ON(CCCC2CCN(S(C)(=O)=O)CC2)C2CN(C3CCN(C)CC3)C(=O)[C@H](CC(C)C)N2C1=O` (stereo partly drawn) [Compound I-151, (3R,6S)-3,6-diisobutyl-8-(1-methylpiperidin-4-yl)-1-(3-(1-(methylsulfonyl)piperidin-4-yl)propyl) tetrahydropyrazino [2,1-c][1,2,4]oxadiazine-4,7(3H,6H)-dione], which inhibition at 10 µM is on record?
**A.** 88%

**Q.** With `CCCC[C@@H](C(=O)NCCC(C)C)N1CC2N(C(=O)OCCc3ccccc3)O[C@H](Cc3ccccc3)C(=O)N2[C@@H](Cc2ccccc2)C1=O` (stereo partly drawn) [Compound I-82, phenethyl (3R,6S)-3,6-dibenzyl-8-((S)-1-(isopentylamino)-1-oxohexan-2-yl)-4,7-dioxohexahydro-pyrazino[2,1-c] [1,2,4]oxadiazine-1(6H)-carboxylate] as the compound, how does the inhibition at 10 µM read?
**A.** 51.2%

**Q.** `CC(C)CCNC(=O)[C@H](Cc1ccc(O)cc1)N1CC2N(C(=O)OCCC(C)C)O[C@H](Cc3ccccc3)C(=O)N2[C@@H](Cc2ccc(O)cc2)C1=O` (stereo partly drawn) [Compound I-107, isopentyl (3R,6S)-3-benzyl-6-(4-hydroxybenzyl)-8-((S)-3-(4-hydroxyphenyl)-1-(isopentylamino)-1-oxopropan-2-yl)-4,7-dioxohexahydropyrazino[2,1-c][1,2,4]oxadiazine-1(6H)-carboxylate] was tested. Which inhibition at 10 µM did it give?
**A.** 61.1%

**Q.** How did the inhibition at 10 µM turn out when `CC(C)C[C@H]1ON(C(=O)OCc2cccc3ccccc23)C2CN(C3CCN(C)CC3)C(=O)[C@H](CC(C)C)N2C1=O` (stereo partly drawn) [Compound I-137, naphthalen-1-ylmethyl (3R,6S)-3,6-diisobutyl-8-(1-methylpiperidin-4-yl)-4,7-dioxohexahydropyrazino[2,1-c][1,2,4]oxadiazine-1(6H)-carboxylate] was run?
**A.** 81.8%

**Q.** How did the inhibition at 10 µM turn out when `CC(C)NC(=O)N1O[C@H](CCCNC(=N)N)C(=O)N2C1CN(Cc1cccc3ccccc13)C(=O)[C@@H]2C` (stereo partly drawn) [Compound I-51, (3R,6S)-3-(3-guanidinopropyl)-N-isopropyl-6-methyl-8-(naphthalen-1-ylmethyl)-4,7-dioxohexahydropyrazino[2,1-c][1,2,4]oxadiazine-1(6H)-carboxamide] was run?
**A.** 55.3%

**Q.** `CC(C)CCCNC(=O)[C@H](Cc1ccc(O)cc1)N1CC2N(C(=O)OCCC(C)C)O[C@H](CC(C)C)C(=O)N2[C@@H](Cc2ccc(O)cc2)C1=O` (stereo partly drawn) [Compound I-98, isopentyl (3R,6S)-6-(4-hydroxybenzyl)-8-((S)-3-(4-hydroxyphenyl)-1-((4-methylpentyl)amino)-1-oxopropan-2-yl)-3-isobutyl-4,7-dioxohexahydropyrazino [2,1-c][1,2,4]oxadiazine-1(6H)-carboxylate] was tested. Which inhibition at 10 µM did it give?
**A.** 60.4%

**Q.** How did the inhibition at 10 µM turn out when `CC(C)CCOC(=O)N1O[C@H](C)C(=O)N2C1CN([C@@H](Cc1ccccc1)C(=O)NCCCO)C(=O)[C@@H]2Cc1ccccc1` (stereo partly drawn) [Compound I-89, isopentyl (3R,6S)-6-benzyl-8-((S)-1-((3-hydroxypropyl)amino)-1-oxo-3-phenylpropan-2-yl)-3-methyl-4,7-dioxohexahydropyrazino[2,1-c][1,2,4]oxadiazine-1(6H)-carboxylate] was run?
**A.** 58.3%

**Q.** How did the inhibition at 10 µM turn out when `CCCCCN1CC2N(C(=O)OCC(C)C)O[C@H](CC3CCCCC3)C(=O)N2[C@@H](CCCCN)C1=O` (stereo partly drawn) [Compound I-34, (3R,6S)-isobutyl 6-(4-aminobutyl)-3-(cyclohexylmethyl)-4,7-dioxo-8-pentylhexahydropyrazino [2,1-c][1,2,4]oxadiazine-1(6H)-carboxylate] was run?
**A.** 120%

**Q.** `CC(C)C[C@H]1ON(CCCC2CCN(S(=O)(=O)c3ccc(C#N)cc3)CC2)C2CN(C3CCN(C)CC3)C(=O)[C@H](CC(C)C)N2C1=O` (stereo partly drawn) [Compound I-152, 4-((4-(3-((3R,6S)-3,6-diisobutyl-8-(1-methylpiperidin-4-yl)-4,7-dioxohexahydro-pyrazino[2,1-c][1,2,4]oxadiazin-1(6H)-yl)propyl)piperidin-1-yl)sulfonyl)benzonitrile] was tested. Which inhibition at 10 µM did it give?
**A.** 93.5%

**Q.** How did the inhibition at 10 µM turn out when `CC(C)C[C@H]1ON(C(=O)OCc2ccccc2)C2CN(C3CCN(C)CC3)C(=O)[C@H](CCCCNC3CN(C(=O)OC(C)(C)C)C3)N2C1=O` (stereo partly drawn) [Compound I-146, benzyl (3R,6S)-6-(4-((1-(tert-butoxycarbonyl)azetidin-3-yl)amino)butyl)-3-isobutyl-8-(1-methylpiperidin-4-yl)-4,7-dioxohexahydropyrazino[2,1-c][1,2,4]oxadiazine-1(6H)-carboxylate] was run?
**A.** 105%

**Q.** Which inhibition at 10 µM does the source give for `CCCCCOC(=O)N1O[C@H](CC(C)C)C(=O)N2C1CN([C@@H](Cc1ccc(O)cc1)C(=O)NCCCC(C)C)C(=O)[C@@H]2Cc1ccc(O)cc1` (stereo partly drawn) [Compound I-100, pentyl (3R,6S)-6-(4-hydroxybenzyl)-8-((S)-3-(4-hydroxyphenyl)-1-((4-methylpentyl)amino)-1-oxopropan-2-yl)-3-isobutyl-4,7-dioxohexahydropyrazino [2,1-c][1,2,4]oxadiazine-1(6H)-carboxylate] here?
**A.** 63.8%

**Q.** With `NC(=O)CC[C@H]1C(=O)N([C@@H](Cc2ccccc2)C(=O)NCCCc2ccccc2)CC2N(C(=O)OCCc3ccccc3)O[C@H](Cc3ccccc3)C(=O)N21` (stereo partly drawn) [Compound I-125, phenethyl (3R,6S)-6-(3-amino-3-oxopropyl)-3-benzyl-4,7-dioxo-8-((S)-1-oxo-3-phenyl-1-((3-phenylpropyl)amino)propan-2-yl)hexahydropyrazino [2,1-c][1,2,4]oxadiazine-1(6H)-carboxylate] as the compound, how does the inhibition at 10 µM read?
**A.** 59.6%

**Q.** For `O=C1[C@H](CO)N2C(=O)[C@@H](Cc3ccccc3)ON(C(=O)OCC3CCCCC3)C2CN1CCc1ccc(O)cc1` (stereo partly drawn) [Compound I-32, (3R,6S)-cyclohexylmethyl 3-benzyl-6-(hydroxymethyl)-8-(4-hydroxyphenethyl)-4,7-dioxohexahydropyrazino[2,1-c][1,2,4]oxadiazine-1(6H)-carboxylate], which inhibition at 10 µM is on record?
**A.** 59.8%

**Q.** For `CC(C)C[C@H]1ON(C(=O)OCc2cccc3ccccc23)C2CN(C3CCNCC3)C(=O)[C@H](CC(C)C)N2C1=O` (stereo partly drawn) [Compound I-136, naphthalen-1-ylmethyl (3R,6S)-3,6-diisobutyl-4,7-dioxo-8-(piperidin-4-yl)hexahydropyrazino[2,1-c][1,2,4]oxadiazine-1(6H)-carboxylate], which inhibition at 10 µM is on record?
**A.** 79.7%

**Q.** For `NC(=O)C[C@H]1C(=O)N(CCc2ccccc2)CC2N(C(=O)OCC3CCCCC3)O[C@H](Cc3ccc(O)cc3)C(=O)N21` (stereo partly drawn) [Compound I-39, (3R,6S)-cyclohexylmethyl 6-(2-amino-2-oxoethyl)-3-(4-hydroxybenzyl)-4,7-dioxo-8-phenethylhexahydropyrazino [2,1-c][1,2,4]oxadiazine-1(6H)-carboxylate], which inhibition at 10 µM is on record?
**A.** 52.1%
